Columns and labels:
human MCH-1 receptor = human MCH-1 receptor (Homo sapiens (Human), UniProt Q99705); test: Binding Assay for Human Melanin-Concentrating Hormone (MCH-1) Receptor; settings: radioligand displacement, membranes from CHO-K1 cells expressing human MCH-1 receptor; Ki from IC50 by Cheng Prusoff equation; read-out: MCH1 Ki
How it was run: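 Membranes from CHO-K1 cells stably expressing human MCH-1 incubated 60 min at 25 °C with 1.4 nM tritiated indazolyl-pyridinone radioligand in 50 mM Tris-HCl pH 7.4. Bound counts by filtration and scintillation; IC50 and nH by Hill fit, Ki by Cheng–Prusoff.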

human MCH-1 receptor, sequence (Q99705 whole entry): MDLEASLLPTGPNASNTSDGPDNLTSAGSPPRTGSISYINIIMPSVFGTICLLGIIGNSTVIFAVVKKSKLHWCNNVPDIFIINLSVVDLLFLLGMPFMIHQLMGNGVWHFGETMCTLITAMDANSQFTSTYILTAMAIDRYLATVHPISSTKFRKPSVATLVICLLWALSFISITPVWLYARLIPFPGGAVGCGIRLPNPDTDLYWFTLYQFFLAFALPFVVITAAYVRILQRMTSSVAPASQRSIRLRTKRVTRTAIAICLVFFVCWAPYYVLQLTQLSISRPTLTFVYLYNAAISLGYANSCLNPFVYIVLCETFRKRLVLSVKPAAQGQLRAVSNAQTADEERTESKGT

| Ki (human MCH-1 receptor) | melting point | SMILES |
| --- | --- | --- |
| 4.7 nM | 264 to 270 °C (dec.) | Cl.Cn1c2c(c3ccc(-n4ccc(-c5ccc(C(F)(F)F)cn5)cc4=O)cc31)CNCCC2 [Example 23, 1-(6-Methyl-1,2,3,4,5,6-hexahydroazepino[4,3-b]indol-8-yl)-4-(5-(trifluoromethyl)pyridin-2-yl)pyridin-2(1H)-one hydrochloride] |
| 5.3 nM | 274 to 280 °C (dec.) | Cl.Cn1c2c(c3ccc(-n4ccc(-c5ccc(C(F)(F)F)nc5)cc4=O)cc31)CNCCC2 [Example 27, 1-(6-Methyl-1,2,3,4,5,6-hexahydroazepino[4,3-b]indol-8-yl)-4-(6-(trifluoromethyl)pyridin-3-yl)pyridin-2(1H)-one hydrochloride] |
| 10.9 nM | 248 to 252 °C (dec.) | Cl.Cn1c2c(c3ccc(-n4ccc(-c5ccc(C(F)(F)F)nn5)cc4=O)cc31)CNCCC2 [Example 28, 1-(6-Methyl-1,2,3,4,5,6-hexahydroazepino[4,3-b]indol-8-yl)-4-(6-(trifluoromethyl)pyridazin-3-yl)pyridin-2(1H)-one hydrochloride] |
| 4.9 nM | 250 to 255 °C (dec.) | CSc1ccc(-c2ccn(-c3ccc4c5c(n(C)c4c3)CCCNC5)c(=O)c2)cc1.Cl [Example 32, 1-(6-Methyl-1,2,3,4,5,6-hexahydroazepino[4,3-b]indol-8-yl)-4-(4-(methylthio)phenyl)pyridin-2(1H)-one hydrochloride] |
| 17.5 nM | 245 to 250 °C (dec.) | Cc1ccc(-c2ccn(-c3ccc4c5c(n(C)c4c3)CCCNC5)c(=O)c2)cn1.Cl [Example 33, 1-(6-Methyl-1,2,3,4,5,6-hexahydroazepino[4,3-b]indol-8-yl)-4-(6-methylpyridin-3-yl)pyridin-2(1H)-one hydrochloride] |
| 12.2 nM | 310 to 320 °C (dec.) | Cl.O=c1cc(-c2ccc(C(F)(F)F)cn2)ccn1-c1ccc2c3c([nH]c2c1)CCCNC3 [Example 36, 1-(1,2,3,4,5,6-Hexahydroazepino[4,3-b]indol-8-yl)-4-(5-(trifluoromethyl)pyridin-2-yl)pyridin-2(1H)-one hydrochloride] |
| 29.2 nM | 310 to 315 °C (dec.) | Cl.O=c1cc(-c2ccc(C(F)(F)F)nn2)ccn1-c1ccc2c3c([nH]c2c1)CCCNC3 [Example 37, 1-(1,2,3,4,5,6-Hexahydroazepino[4,3-b]indol-8-yl)-4-(6-(trifluoromethyl)pyridazin-3-yl)pyridin-2(1H)-one hydrochloride] |
| 60 nM | 156 to 162 °C | CC(=O)N1CCCc2c(c3ccc(-n4ccc(-c5ccc(C(F)(F)F)nc5)cc4=O)cc3n2C)C1 [Example 62, 1-(2-Acetyl-6-methyl-1,2,3,4,5,6-hexahydroazepino[4,3-b]indol-8-yl)-4-(6-(trifluoromethyl)pyridin-3-yl)pyridin-2(1H)-one] |
| 5 nM | 260 to 266 °C | Cl.Cn1c2c(c3ccc(-n4ccc(OCc5ccc(Cl)cn5)cc4=O)cc31)CNCCC2 [Example 63, 4-((5-Chloropyridin-2-yl)methoxy)-1-(6-methyl-1,2,3,4,5,6-hexahydroazepino[4,3-b]indol-8-yl)pyridin-2(1H)-one hydrochloride] |
| 7.3 nM | 272 to 280 °C | Cl.Cn1c2c(c3ccc(-n4ccc(OCc5ccc(F)cc5F)cc4=O)cc31)CNCCC2 [Example 66, 4-(2,4-Difluorobenzyloxy)-1-(6-methyl-1,2,3,4,5,6-hexahydroazepino[4,3-b]indol-8-yl)pyridin-2(1H)-one hydrochloride] |
| 22 nM | 251 to 256 °C | Cl.Cn1c2c(c3ccc(-n4ccc(OCc5ncc(Cl)cc5Cl)cc4=O)cc31)CNCCC2 [Example 67, 4-((3,5-Dichloropyridin-2-yl)methoxy)-1-(6-methyl-1,2,3,4,5,6-hexahydroazepino[4,3-b]indol-8-yl)pyridin-2(1H)-one dihydrochloride] |
| 8.2 nM | 191 to 200 °C | Cl.Cn1c2c(c3ccc(-n4ccc(OCc5ccc(Cl)cc5F)cc4=O)cc31)CNCCC2 [Example 68, 4-(4-Chloro-2-fluorobenzyloxy)-1-(6-methyl-1,2,3,4,5,6-hexahydroazepino[4,3-b]indol-8-yl)pyridin-2(1H)-one hydrochloride] |
| 29 nM | 320 to 325 °C (dec.) | Cl.Cn1c2c(c3ccc(-n4ccc(-c5ccc(C(F)(F)F)nc5)cc4=O)nc31)CCNCC2 [Example 78, 1-(10-Methyl-5,6,7,8,9,10-hexahydropyrido[3′,2′:4,5]pyrrolo[2,3-d]azepin-2-yl)-4-(6-(trifluoromethyl)pyridin-3-yl)pyridin-2(1H)-one hydrochloride] |
| 235 nM | 300 to 305 °C (dec.) | Cl.Cn1c2c(c3ccc(-n4ccc(-c5ccc(C(F)(F)F)nn5)cc4=O)nc31)CCNCC2 [Example 79, 1-(10-Methyl-5,6,7,8,9,10-hexahydropyrido[3′,2′:4,5]pyrrolo[2,3-d]azepin-2-yl)-4-(6-(trifluoromethyl)pyridazin-3-yl)pyridin-2(1H)-one hydrochloride] |
| 69 nM | 310 to 314 °C (dec.) | Cl.Cn1c2c(c3ccc(-n4ccc(-c5ccc(C(F)(F)F)cn5)cc4=O)nc31)CCNCC2 [Example 80, 1-(10-Methyl-5,6,7,8,9,10-hexahydropyrido[3′,2′:4,5]pyrrolo[2,3-d]azepin-2-yl)-4-(5-(trifluoromethyl)pyridin-2-yl)pyridin-2(1H)-one hydrochloride] |

The remaining lines, values behind:

| SMILES | Ki (human MCH-1 receptor) | melting point |
| --- | --- | --- |
| Cl.Cn1c2c(c3ccc(-n4ccc(OCc5ccccc5)cc4=O)cc31)CNCCC2 [Example 21, 4-(Benzyloxy)-1-(6-methyl-1,2,3,4,5,6-hexahydroazepino[4,3-b]indol-8-yl)pyridin-2(1H)-one hydrochloride] | 4.7 nM | 283 to 287 °C (dec.) |
| Cn1c2c(c3ccc(-n4ccc(OCc5ccccc5)cc4=O)cc31)C(=O)NCCC2 [Example 38] | 100 nM | 178 to 181 °C |
| Cl.Cn1c2c(c3ccc(-n4ncc(OCc5ccc(C(F)(F)F)nc5)cc4=O)cc31)CCNCC2 [Example 47, 2-(6-Methyl-1,2,3,4,5,6-hexahydroazepino[4,5-b]indol-8-yl)-5-((6-(trifluoromethyl)pyridin-3-yl)methoxy)pyridazin-3(2H)-one hydrochloride] | 74 nM | 270 to 274 °C |
| CC(=O)N1CCc2c(n(C)c3cc(-n4ccc(OCc5ccc(F)cn5)cc4=O)ccc23)CC1.Cl [Example 48, 1-(3-Acetyl-6-methyl-1,2,3,4,5,6-hexahydroazepino[4,5-b]indol-8-yl)-4-((5-fluoropyridin-2-yl)methoxy)pyridin-2(1H)-one] | 60 nM | 88 to 94 °C |
| CC(=O)N1CCc2[nH]c3cc(-n4ccc(OCc5ccccc5)cc4=O)ccc3c2CC1 [Example 54, 1-(3-Acetyl-1,2,3,4,5,6-hexahydroazepino[4,5-b]indol-8-yl)-4-(benzyloxy)pyridin-2(1H)-one] | 112 nM | 250 to 254 °C |
| Cl.Cn1c2c(c3ccc(-n4ccc(OCc5ncc(Cl)cc5Cl)cc4=O)cc31)CCNCC2 [Example 56, 4-((3,5-Dichloropyridin-2-yl)methoxy)-1-(6-methyl-1,2,3,4,5,6-hexahydroazepino[4,5-b]indol-8-yl)pyridin-2(1H)-one hydrochloride] | 27 nM | 178 to 180 °C |
| CC(=O)N1CCCc2c(c3ccc(-n4ccc(OCc5ccc(F)cn5)cc4=O)cc3n2C)C1 [Example 61, 1-(2-Acetyl-6-methyl-1,2,3,4,5,6-hexahydroazepino[4,3-b]indol-8-yl)-4-((5fluoropyridin-2-yl)methyoxy)pyridin-2(1H)-one] | 57 nM | 78 to 83 °C |
| Cl.Cn1c2c(c3ccc(N4CCN(CCc5ccc(Cl)cc5)CC4=O)cc31)CNCCC2 [Example 64, 4-(4-Chlorophenethyl)-1-(6-methyl-1,2,3,4,5,6-hexahydroazepino[4,3-b]indol-8-yl)piperazin-2-one hydrochloride] | 4.6 nM | 252 to 257 °C |
| Cl.Cn1c2c(c3ccc(-n4ccc(OCc5ccc(F)cn5)cc4=O)cc31)CN(C1CCC1)CCC2 [Example 72, 1-(2-Cyclobutyl-6-methyl-1,2,3,4,5,6-hexahydroazepino[4,3-b]indol-8-yl)-4-((5-fluoropyridin-2-yl)methoxy)pyridin-2(1H)-one hydrochloride] | 7.5 nM | 260 to 265 °C |
| CN1CCCc2c(c3ccc(N4CCN(CCc5ccc(F)cc5)CC4=O)cc3n2C)C1.Cl [Example 74, 1-(2,6-Dimethyl-1,2,3,4,5,6-hexahydroazepino[4,3-b]indol-8-yl)-4-(4-fluorophenethyl)piperazin-2-one hydrochloride] | 10 nM | 211 to 220 °C |
| Cl.Cn1c2c(c3ccc(N4CCN(CCc5ccc(F)cc5)CC4=O)cc31)CN(C1CCC1)CCC2 [Example 75, 1-(2-Cyclobutyl-6-methyl-1,2,3,4,5,6-hexahydroazepino[4,3-b]indol-8-yl)-4-(4-fluorophenethyl)piperazin-2-one hydrochloride] | 14 nM | 194 to 205 °C |
| CCN1CCCc2c(c3ccc(N4CCN(CCc5ccc(F)cc5)CC4=O)cc3n2C)C1.Cl [Example 76, 1-(2-Ethyl-6-methyl-1,2,3,4,5,6-hexahydroazepino[4,3-b]indol-8-yl)-4-(4-fluorophenethyl)piperazin-2-one hydrochloride] | 9.8 nM | 190 to 205 °C |
| Cl.Cn1c2c(c3ccc(-n4ccc(OCc5ccccc5)cc4=O)nc31)CCNCC2 [Example 77, 4-(Benzyloxy)-1-(10-methyl-5,6,7,8,9,10-hexahydropyrido[3′,2′:4,5]pyrrolo[2,3-d]azepin-2-yl)pyridin-2(1H)-one hydrochloride] | 11 nM | 180 to 185 °C (dec.) |
